Entries after “also recorded” stand apart in the source; their conditions may differ.
Columns and labels:
BV-2 microglial cells [1] = assay: LPS-induced NO production in BV-2 microglial cells (Griess, nitrite); assay type: cell-based, murine; conditions: LPS 100 ng/ml; for inhibition at 10 µM: Mus musculus, BV-2 microglial cells, 10 μM compound, LPS-increased NO production = 100%
Protocol: (§1) BV-2 cells, a murine microglial cell line, were cultured in Dulbecco's modified Eagle's medium (DMEM) containing 5% heat-inactivated FBS and 50 μg/ml gentamicin at 37° C. Rat microglial HAPI cells and mouse primary astrocytes were cultured in DMEM (10% FBS, 10 U/ml penicillin, 10 μg/ml streptomycin) at 37° C. All animals and experimental procedures were approved by the Institutional Review Board of Kyungpook National University School of Pharmacy and were carried out in accordance with the NIH Guide for the Care and Use of Laboratory Animals. All animals were maintained under temperature- and humidity-controlled conditions.
(§2) The production of nitric oxide (NO) was estimated by measuring the amount of nitrite, which is a NO metabolite. The BV-2 cells (40,000 cells/well in 96-well plates) were treated with 100 ng/ml of LPS in the presence or absence of the compounds from the library. At the end of a 24 hour incubation period, 50 μl of the cell culture media was mixed with an equal volume of a Griess reagent in each well. The light absorbance was measured at 540 nm, while a standard curve was generated using sodium nitrite.
(§3) Specifically, the BV-2 cells were cultured in 96-well plates and stimulated with LPS at a concentration of 100 ng/ml. The BV-2 cells stimulated with LPS were treated with 3,500 low molecular weight substances (FIG. 1).
While an increased NO production by LPS is designated as 100%, a suppressed amount of NO production by each derivative of Compound 1 is presented by its respective percentage.

[2] = tested on: HAPI rat microglial cells; assay: LPS-induced NO release in HAPI cells; assay type: cell-based; conditions: various concentrations, 24 hours
Protocol: as §1
(§4) The present inventors confirmed the anti-neuroinflammatory effect of Compound 1, which was identified in Example 1, in the HAPI rat microglial cells and the RAW264.7 macrophage cells. The cells were cultured in 96-well plates, followed by treatment with various concentrations of Compound 1 with LPS, respectively. After 24 hours of such a treatment, NO release was examined.

[3] = Brain distribution and half-life after intraperitoneal administration; assay type: in vivo; conditions: 2 mg/kg, previous study by the inventors
astrocytes = assay: NO, TNF-α production and Ym-1 expression in astrocytes; assay type: cell-based, mouse
Protocol: as §1
The mouse primary microglial cells were cultured under mild conditions according to known methods. In brief, the forebrains of 3-5 day-old C57BL/6 mice were harvested and mechanically pulverized using a nylon mesh. The cells were seeded onto a poly-L-lysine-coated flasks and then cultured. After in vitro culture of 10-14 days, the microglial cells were isolated from the mixed glial cultures by shaking for 6 hours at 200 rpm. Astrocytes remained attached to the bottom of the culture flask were used for the following experiments. 3. High Throughput Screening
as §2, with “At the end of a 24 hour incubation period, 50 μl of the cell culture media was mixed with an equal volume of a Griess reagent in each well.” left out
The BV-2 cells or astrocytes were treated with LPS and Compound 1, followed by culturing for 24 hours. The TNF-α levels in the culture media were measured using a rat monoclonal anti-mouse TNF-α antibody as a primary antibody and a goat anti-mouse TNF-α antibody as a secondary antibody.
Total RNA was extracted from microglial cells or brain tissues using TRIZOL reagent (Invitrogen, Carlsbad, Calif., USA). […] For the PCR product analysis, 10 μl of each PCR reaction was electrophoresed on 1% agarose gel and detected under ultraviolet light. […]

BV-2 microglial cells [4] = assay: RT-PCR of LPS-induced pro-inflammatory gene expression in BV-2 cells; assay type: cell-based, murine; conditions: pre-treatment
Protocol: (§5) Total RNA was extracted from microglial cells or brain tissues using TRIZOL reagent (Invitrogen, Carlsbad, Calif., USA). Reverse transcription (RT) was performed using Superscript II reverse transcriptase (Invitrogen) and Oligo (dT) primers. Traditional polymerase chain reaction (PCR) amplification was performed using specific primer sets at annealing temperature 55-60° C. for 20-30 cycles. PCR was performed using C1000 Touch Thermal Cycler. For the PCR product analysis, 10 μl of each PCR reaction was electrophoresed on 1% agarose gel and detected under ultraviolet light.
(§6) Real-time RT-PCR was performed using Perfect Real-Time One Step SYBR Primer Script RT-PCR Kit (Takara Bio, Otsu, Shiga, Japan).
The primer sequences were designed based on published cDNA sequences (See Table 1).
Next, the effect of Compound 1 on the LPS-induced expression of pro-inflammatory mediators was examined in the BV-2 microglial cells.

[5] = tested on: LPS-induced mouse neuroinflammation model; assay: LPS-induced mouse neuroinflammation model (Iba-1 immunostaining, real-time RT-PCR of brain); assay type: in vivo, C57BL/6 mice; conditions: 72 h after LPS
Protocol: as §5, §6
LPS was intraperitoneally administered according to a conventionally known method for producing neuroinflammatory mouse model. All experiments were performed on C57BL/6 mice aged 9-11 weeks, and the animals were supplied from Koatech. In each experiment, the animals were divided into four groups (Group 1, vehicle-treated group; Group 2, Compound 1-treated group; Group 3, LPS & vehicle-treated group; Group 4, LPS & Compound 1-treated group). Compound 1 (2 mg/kg) was dissolved in saline containing 5% DMSO and 40% polyethylene glycol and administered intraperitoneally daily for 4 days. LPS (5 mg/kg) induced a neuroinflammatory animal model by intraperitoneally administering its single dose on the second day.
For histological analysis, 72 hours after the administration of LPS, the animals were anesthetized and perfused transcardially first with saline and then with 4% paraformaldehyde. The activity of microglial cells was evaluated using Iba-1 staining. At least three animals were included in each experimental group. […]
The mice were then sacrificed, and the Iba-1 levels were analyzed as molecular markers of microglia activation (FIG. 6B).
The Iba-1-stained cells whose intensity values were above an arbitrarily defined threshold were counted from each of three brain regions, including the cortex, hippocampus, and substantia nigra.

[6] = tested on: RAW264.7 macrophage cells; assay: LPS-induced NO release in RAW264.7 cells; assay type: cell-based; conditions: various concentrations, 24 hours
Protocol: as §4

BV-2 cells = assay: Cell viability, MTT assay; assay type: cell-based, murine
Protocol: Cell viability was assessed using MTT assay. After treatment with LPS and the compounds, the culture solution was aspirated and removed. MTT (0.5 mg/ml in PBS) was added to the cells and incubated at 37° C. for 4 hours. The resulting formazan was dissolved in DMSO. The absorbance was determined at 570 nm using a microplate reader.
as §3

[7] = 2 mg/kg i.p., LPS 5 mg/kg, real-time RT-PCR

CCC(OC(=O)N(Cc1ccccc1)C(=O)Nc1ccccc1)c1cc(-c2ccc(OC(C)(C)C(=O)O)cc2)no1 (centres unmarked) [Compound 1, 2-(4-(5-(1-((benzyl(phenylcarbamoyl)carbamoyl)oxy)propyl)isoxazol-3-yl)phenoxy)-2-methylpropanoic acid]
inhibition of NO production in microglial cells (high-throughput screening) (BV-2 microglial cells [1]; BV-2 cells): effectively inhibiting NO production | inhibition at 10 µM (BV-2 microglial cells [1]): 73.4% | LPS-induced NO release [2]: inhibits the LPS-induced NO release in the microglial and macrophage cells in a dose-dependent manner | brain distribution [3]: 0.19 µg/h/mL | half-life ([3]; brain, ip): 5.23 h | IL-4-induced Ym-1 expression in astrocytes (astrocytes; IL-4): increasing | LPS-induced NO production in astrocytes (astrocytes; LPS): inhibited | LPS-induced TNF-α production in astrocytes (astrocytes; LPS): inhibited | expression of IL-1β gene (BV-2 microglial cells [4]): significantly reduced | expression of TNF-α gene (BV-2 microglial cells [4]): significantly reduced | expression of iNOS gene (BV-2 microglial cells [4]): significantly reduced | LPS-induced microglial activation (Iba-1 positive cells) ([5]; 2 mg/kg i.p. daily for 4 days, LPS 5 mg/kg i.p., cortex, hippocampus, substantia nigra): significantly reduced; also recorded: effectively blocked | expression level of IL-1β mRNA in brain [5, 7]: significantly diminished | expression level of TNF-α mRNA in brain [5, 7]: significantly diminished | LPS-induced NO release [6]: inhibits the LPS-induced NO release in the microglial and macrophage cells in a dose-dependent manner | cytotoxicity (BV-2 cells): low in cytotoxicity

CCC(OC(=O)N(Cc1ccccc1)C(=O)Nc1ccc(C(F)(F)F)cc1)c1cc(-c2ccc(OC(C)(C)C(=O)O)cc2)no1 (centres unmarked) [4-trifluoromethyl, 2-(4-(5-(1-((benzyl((4-trifluoromethylphenyl)carbamoyl)carbamoyl)oxy)propyl)isoxazol-3-yl)phenoxy)-2-methylpropanoic acid]
inhibition at 10 µM (BV-2 microglial cells [1]): 52.7%

CCC(OC(=O)N(Cc1ccccc1)C(=O)Nc1ccc(C)cc1)c1cc(-c2ccc(OC(C)(C)C(=O)O)cc2)no1 (centres unmarked) [Compound 4-methyl, 2-(4-(5-(1-((benzyl((4-methylphenyl)carbamoyl)carbamoyl)oxy)propyl)isoxazol-3-yl)phenoxy)-2-methylpropanoic acid]
inhibition at 10 µM (BV-2 microglial cells [1]): 46.7%

CCC(OC(=O)N(Cc1ccccc1)C(=O)Nc1ccc2c(c1)OCO2)c1cc(-c2ccc(OC(C)(C)C(=O)O)cc2)no1 (centres unmarked) [3,4-methylenedioxy]
inhibition at 10 µM (BV-2 microglial cells [1]): 74.6%

CCC(OC(=O)N(Cc1ccccc1)C(=O)Nc1cc(OC)cc(OC)c1)c1cc(-c2ccc(OC(C)(C)C(=O)O)cc2)no1 (centres unmarked) [3,5-dimethoxy]
inhibition at 10 µM (BV-2 microglial cells [1]): 56.7%

CCCCc1ccc(NC(=O)N(Cc2ccccc2)C(=O)OC(CC)c2cc(-c3ccc(OC(C)(C)C(=O)O)cc3)no2)cc1 (centres unmarked) [Compound 4-n-butyl, 2-(4-(5-(1-((benzyl((4-n-butylmethylphenyl)carbamoyl)carbamoyl)oxy)propyl)isoxazol-3-yl)phenoxy)-2-methylpropanoic acid]
inhibition at 10 µM (BV-2 microglial cells [1]): 58.3%

CCC(OC(=O)N(Cc1ccccc1)C(=O)Nc1ccc(OC)cc1)c1cc(-c2ccc(OC(C)(C)C(=O)O)cc2)no1 (centres unmarked) [Compound 4-methoxy, 2-(4-(5-(1-((benzyl((4-methoxyphenyl)carbamoyl)carbamoyl)oxy)propyl)isoxazol-3-yl)phenoxy)-2-methylpropanoic acid]
inhibition at 10 µM (BV-2 microglial cells [1]): 46.7%

CCC(OC(=O)N(Cc1ccccc1)C(=O)Nc1ccc(OC)c(OC)c1)c1cc(-c2ccc(OC(C)(C)C(=O)O)cc2)no1 (centres unmarked) [3,4-dimethoxy, 2-(4-(5-(1-((benzyl((3,4-dimethoxymethylphenyl)carbamoyl)carbamoyl)oxy)propyl)isoxazol-3-yl)phenoxy)-2-methylpropanoic acid]
inhibition at 10 µM (BV-2 microglial cells [1]): 60.7%

CCC(OC(=O)N(Cc1ccccc1)C(=O)Nc1cccc(OC)c1)c1cc(-c2ccc(OC(C)(C)C(=O)O)cc2)no1 (centres unmarked) [Compound 3-methoxy, 2-(4-(5-(1-((benzyl((3-methoxyphenyl)carbamoyl)carbamoyl)oxy)propyl)isoxazol-3-yl)phenoxy)-2-methylpropanoic acid]
inhibition at 10 µM (BV-2 microglial cells [1]): 25.6%

CCC(OC(=O)N(Cc1ccccc1)C(=O)Nc1ccc(Cl)cc1)c1cc(-c2ccc(OC(C)(C)C(=O)O)cc2)no1 (centres unmarked) [Compound 4-chloro]
inhibition at 10 µM (BV-2 microglial cells [1]): 67.8%

CCC(OC(=O)N(Cc1ccccc1)C(=O)Nc1ccccc1OC)c1cc(-c2ccc(OC(C)(C)C(=O)O)cc2)no1 (centres unmarked) [Compound 2-methoxy, 2-(4-(5-(1-((benzyl((2-methoxyphenyl)carbamoyl)carbamoyl)oxy)propyl)isoxazol-3-yl)phenoxy)-2-methylpropanoic acid]
inhibition at 10 µM (BV-2 microglial cells [1]): 20.9%

From patent publication US10238635B2, “N-carbamoylated urethane for treating a neuroinflammatory disease” (Kyungpook National University Industry—Academic Cooperation …, priority 2016, dated 2019)
